Marks after values point to notes of the source that are not given here.
Tested on: duodenal tissue (villi, crypts, goblet cells)
Assay: Morphometric examination of duodenal tissue
Assay type: in vivo, Gallus gallus
Protocol: The pure resveratrol and pterostilbene were individually diluted in 18 MΩ H2O. The intra-amniotic administration followed the methodology previously described. On the 17th day of embryonic development, the eggs with viable embryos (n=60) were randomly allocated into 6 groups (n=10) with a similar weight frequency distribution. For the intra-amniotic treatment, 1 mL of solution per egg was injected into the amniotic fluid (via candling) with the aid of a 21-gauge needle. After the procedure, the injection sites were sealed with cellophane tape, and the eggs were distributed into six groups: (1) no injection; (2) 18 MΩ H2O; (3) 5% inulin; (4) 5% resveratrol; (5) 5% pterostilbene; and (6) synergistic: 4.75% resveratrol and 0.25% pterostilbene. […] The eggs were equally distributed in each incubator location to reduce possible allocation bias. Upon hatching (21 days), the hatchlings were euthanized by CO2 exposure, and the blood, liver, heart, pectoral muscle, small intestine and cecum were obtained.
Villus epithelium analysis was conducted as previously published. The duodenal samples were soaked in buffered formaldehyde (4% (v/v)), dehydrated, cleared and embedded in paraffin. Numerous sections were cut with a thickness of 5 μm and put on slides. The sections were deparaffinized in xylene, after which they were rehydrated in a series of graded alcohol. Finally, the slides were stained with Alcian Blue-periodic acid-Schiff and investigated under a light microscopy. The variables were assessed (light microscope, EPIX XCAP software, standard version, Olympus, Waltham, MA, USA) for the following: villus length, villus diameter, depth of crypts, goblet cell diameter, crypt goblet cell number and villus goblet cells type number (acidic, neutral or mixed). Four segments for each biological sample and five biological samples per treatment group were examined. The goblet cells were enumerated at 10 villi/sample, and the means were calculated for statistical analysis.

[1] = duodenum, intra-amniotic 1 mL/egg on day 17, at hatch, mean ± SEM, n=5
[2] = small intestine, intra-amniotic 1 mL/egg on day 17, at hatch, mean ± SEM, n=5

Oc1ccc(C=Cc2cc(O)cc(O)c2)cc1 [5% Resveratrol, Resveratrol]
Depth of Crypts (μm) [1]: 63.73 ± 1.20^a μm
Mucus Layer Width (μm) [1]: 4.80 ± 0.13^d μm
Villus Diameter (μm) [1]: 54.47 ± 0.70^b μm
Villus Length (μm) [1]: 294.92 ± 3.48^c μm
Crypt Goblet Cell Number [2]: 10.91 ± 0.21 ^b
Goblet Cell Diameter (μM) [2]: 7.94 ± 0.06 ^b μM
Villus Goblet Cell Type Number, Acidic [2]: 10.97 ± 0.23 ^a
Villus Goblet Cell Type Number, Mixed [2]: 0.17 ± 0.03 ^c
Villus Goblet Cell Type Number, Neutral [2]: 0.00 ± 0.00 ^b
Duodenal villus diameter, comparison with controls (versus the controls, p<0.05): significant increase
Duodenal villus length, comparison with controls (versus the controls, p<0.05): significant increase
